Source: ChEMBL document CHEMBL4145521, “Regioselective synthesis of 3,4-diaryl-5-unsubstituted isoxazoles, analogues of natural cytostatic combretastatin A4” (Eur J Med Chem, 2018)

Tests used:
Assay type in all cases: functional
K562 = test: Cytotoxicity against human K562 cells assessed as cell growth at 10 uM incubated for 48 hrs by sulforhodamine B assay relative to control; conditions: K562, 48 h, read-out: Activity
SF-295 = test: Cytotoxicity against human SF295 cells assessed as cell growth at 1 uM incubated for 48 hrs by sulforhodamine B assay relative to control; conditions: SF-295, 48 h, read-out: Activity
MOLT-4 [1] = test: Cytotoxicity against human MOLT4 cells incubated for 48 hrs by sulforhodamine B assay; conditions: MOLT-4, 48 h
Hs-578T [2] = test: Cytotoxicity against human Hs 578T cells assessed as cell growth at 10 uM incubated for 48 hrs by sulforhodamine B assay relative to control; conditions: read-out: Activity
MDA-MB-231 = test: Cytotoxicity against human MDA-MB-231 cells assessed as cell growth at 10 uM incubated for 48 hrs by sulforhodamine B assay relative to control; conditions: MDA-MB-231, 48 h, read-out: Activity
HOP-62 = test: Cytotoxicity against human HOP62 cells assessed as cell growth at 0.1 uM incubated for 48 hrs by sulforhodamine B assay relative to control; conditions: HOP-62, 48 h, read-out: Activity
NCI-H522 = test: Cytotoxicity against human NCI-H522 cells incubated for 48 hrs by sulforhodamine B assay; conditions: NCI-H522, 48 h
IGROV-1 [3] = test: Cytotoxicity against human IGROV1 cells assessed as cell growth at 1 uM incubated for 48 hrs by sulforhodamine B assay relative to control; conditions: IGROV-1, 48 h, read-out: Activity
IGROV-1 [4] = test: Cytotoxicity against human IGROV1 cells assessed as cell growth at 10 uM incubated for 48 hrs by sulforhodamine B assay relative to control; conditions: IGROV-1, 48 h, read-out: Activity
HOP-92 = test: Cytotoxicity against human HOP92 cells assessed as cell growth at 100 uM incubated for 48 hrs by sulforhodamine B assay relative to control; conditions: HOP-92, 48 h, read-out: Activity
OVCAR-5 = test: Cytotoxicity against human OVCAR5 cells assessed as cell growth at 0.1 uM incubated for 48 hrs by sulforhodamine B assay relative to control; conditions: OVCAR-5, 48 h, read-out: Activity
HCT-15 = test: Cytotoxicity against human HCT15 cells incubated for 48 hrs by sulforhodamine B assay; conditions: HCT-15, 48 h
UO-31 = test: Cytotoxicity against human UO31 cells assessed as cell growth at 100 uM incubated for 48 hrs by sulforhodamine B assay relative to control; conditions: UO-31, 48 h, read-out: Activity
OVCAR-4 = test: Cytotoxicity against human OVCAR4 cells incubated for 48 hrs by sulforhodamine B assay; conditions: OVCAR-4, 48 h
MDA-MB-468 = test: Cytotoxicity against human MDA-MB-468 cells assessed as cell growth at 1 uM incubated for 48 hrs by sulforhodamine B assay relative to control; conditions: MDA-MB-468, 48 h, read-out: Activity
SN12C [5] = test: Cytotoxicity against human SN12C cells incubated for 48 hrs by sulforhodamine B assay
SF-539 = test: Cytotoxicity against human SF539 cells incubated for 48 hrs by sulforhodamine B assay; conditions: SF-539, 48 h
Hs-578T [6] = test: Cytotoxicity against human Hs 578T cells assessed as cell growth at 0.01 uM incubated for 48 hrs by sulforhodamine B assay relative to control; conditions: read-out: Activity
TK-10 = test: Cytotoxicity against human TK10 cells assessed as cell growth at 1 uM incubated for 48 hrs by sulforhodamine B assay relative to control; conditions: TK-10, 48 h, read-out: Activity
BT-549 = test: Cytotoxicity against human BT549 cells assessed as cell growth at 1 uM incubated for 48 hrs by sulforhodamine B assay relative to control; conditions: BT-549, 48 h, read-out: Activity
LOX IMVI = test: Cytotoxicity against human LOXIMVI cells assessed as cell growth at 100 uM incubated for 48 hrs by sulforhodamine B assay relative to control; conditions: read-out: Activity
SN12C [7] = test: Cytotoxicity against human SN12C cells assessed as cell growth at 10 uM incubated for 48 hrs by sulforhodamine B assay relative to control; conditions: read-out: Activity
RXF 393 = test: Cytotoxicity against human RXF393 cells assessed as cell growth at 100 uM incubated for 48 hrs by sulforhodamine B assay relative to control; conditions: RXF 393, 48 h, read-out: Activity
HCT-116 = test: Cytotoxicity against human HCT116 cells assessed as cell growth at 10 uM incubated for 48 hrs by sulforhodamine B assay relative to control; conditions: HCT-116, 48 h, read-out: Activity
NCI/ADR-RES = test: Cytotoxicity against human NCI/ADR-RES cells assessed as cell growth at 1 uM incubated for 48 hrs by sulforhodamine B assay relative to control; conditions: read-out: Activity
HCC 2998 = test: Cytotoxicity against human HCC2998 cells incubated for 48 hrs by sulforhodamine B assay; conditions: HCC 2998, 48 h
SK-MEL-28 = test: Cytotoxicity against human SK-MEL-28 cells assessed as cell growth at 10 uM incubated for 48 hrs by sulforhodamine B assay relative to control; conditions: SK-MEL-28, 48 h, read-out: Activity
MOLT-4 [8] = test: Cytotoxicity against human MOLT4 cells assessed as cell growth at 1 uM incubated for 48 hrs by sulforhodamine B assay relative to control; conditions: MOLT-4, 48 h, read-out: Activity
MOLT-4 [9] = test: Cytotoxicity against human MOLT4 cells assessed as cell growth at 0.1 uM incubated for 48 hrs by sulforhodamine B assay relative to control; conditions: MOLT-4, 48 h, read-out: Activity
[10] = read-out: LC50 (the source's name)
[11] = read-out: pLC50 (the source's name) (converted)

Structure (SMILES): COc1ccc(-c2nocc2-c2cc(OC)c(OC)c(OC)c2)cc1
- growth at 10 µM (K562): 9%
- growth at 1 µM (SF-295): 7%
- GI50 (MOLT-4 [1]; read-out: GI50): 0.708 µM
- CC50 (MOLT-4 [1]; [10]): > 100 µM
- TGI (MOLT-4 [1]; read-out: TGI): > 100 µM
- GI50 (MOLT-4 [1]; read-out: pGI50 (converted)): 0.708 µM
- CC50 (MOLT-4 [1]; [11]): > 100 µM
- TGI (MOLT-4 [1]; read-out: pTGI): > 100 µM
- growth at 10 µM (Hs-578T [2]): 28%
- growth at 10 µM (MDA-MB-231): 17%
- growth at 0.1 µM (HOP-62): 58%
- GI50 (NCI-H522; read-out: GI50): 0.0225 µM
- LC50 (NCI-H522; read-out: LC50): > 100 µM
- TGI (NCI-H522; read-out: TGI): 0.0752 µM
- GI50 (NCI-H522; read-out: pGI50 (converted)): 0.0224 µM
- LC50 (NCI-H522; read-out: pLC50 (converted)): > 100 µM
- TGI (NCI-H522; read-out: pTGI (converted)): 0.0759 µM
- growth at 1 µM (IGROV-1 [3]): 47%
- growth at 10 µM (IGROV-1 [4]): 25%
- growth at 100 µM (HOP-92): -21%
- growth at 0.1 µM (OVCAR-5): 86%
- GI50 (HCT-15; read-out: GI50): 0.044 µM
- LC50 (HCT-15; read-out: LC50): > 100 µM
- TGI (HCT-15; read-out: TGI): > 100 µM
- GI50 (HCT-15; read-out: pGI50 (converted)): 0.0437 µM
- LC50 (HCT-15; read-out: pLC50 (converted)): > 100 µM
- TGI (HCT-15; read-out: pTGI): > 100 µM
- growth at 100 µM (UO-31): -27%
- GI50 (OVCAR-4; read-out: GI50): 0.926 µM
- LC50 (OVCAR-4; read-out: LC50): > 100 µM
- TGI (OVCAR-4; read-out: TGI): > 100 µM
- GI50 (OVCAR-4; read-out: pGI50 (converted)): 0.933 µM
- LC50 (OVCAR-4; read-out: pLC50 (converted)): > 100 µM
- TGI (OVCAR-4; read-out: pTGI): > 100 µM
- growth at 1 µM (MDA-MB-468): 3%
- GI50 (SN12C [5]; read-out: GI50): 0.825 µM
- LC50 (SN12C [5]; read-out: LC50): > 100 µM
- TGI (SN12C [5]; read-out: TGI): 92.6 µM
- GI50 (SN12C [5]; read-out: pGI50 (converted)): 0.832 µM
- LC50 (SN12C [5]; read-out: pLC50 (converted)): > 100 µM
- TGI (SN12C [5]; read-out: pTGI (converted)): 93.3 µM
- GI50 (SF-539; read-out: GI50): 0.173 µM
- LC50 (concentration killing 50% of cells) (SF-539; read-out: LC50): > 100 µM
- TGI (SF-539; read-out: TGI): 13.7 µM
- GI50 (SF-539; read-out: pGI50 (converted)): 0.174 µM
- LC50 (concentration killing 50% of cells) (SF-539; read-out: pLC50 (converted)): > 100 µM
- TGI (SF-539; read-out: pTGI (converted)): 13.8 µM
- growth at 0.01 µM (Hs-578T [6]): 92%
- growth at 1 µM (TK-10): 21%
- growth at 1 µM (BT-549): 33%
- growth at 100 µM (LOX IMVI): -7%
- growth at 10 µM (SN12C [7]): 34%
- growth at 100 µM (RXF 393): -2%
- growth at 10 µM (HCT-116): 6%
- growth at 1 µM (NCI/ADR-RES): 9%
- GI50 (HCC 2998; read-out: GI50): 0.347 µM
- CC50 (HCC 2998; [10]): > 100 µM
- TGI (HCC 2998; read-out: TGI): 22.2 µM
- GI50 (HCC 2998; read-out: pGI50 (converted)): 0.347 µM
- CC50 (HCC 2998; [11]): > 100 µM
- TGI (HCC 2998; read-out: pTGI (converted)): 22.4 µM
- growth at 10 µM (SK-MEL-28): 46%
- growth at 1 µM (MOLT-4 [8]): 44%
- growth at 0.1 µM (MOLT-4 [9]): 85%
